In brackets after ≈: the same amount, converted by molar mass.
How the values were obtained:
[1] = Urinary and fecal excretion of 2-QBA and 2-QBA-Glu with vehicle or AC treatment (β-glucuronidase treatment); type: in vivo; conditions: mice; for urinary excretion rate: PO 2 mg/kg
Experimental: In total, […] were administered 2-QBA (1 mg/kg/3 mL) via the tail vein. Two hours after the 2-QBA dosing, AC (0.8 g/kg/5 mL in distilled water) or a vehicle (5 mL/kg distilled water) was administrated via oral gavage. Each group included ten mice who were randomly divided into two groups for sparse sampling. Blood collection was performed at 0.083, 0.5, 2, and 8 h from 5 mice and at 0.25, 1, 4, and 24 h from another 5 mice, as described previously. Four mice treated with either AC (0.8 g/kg) or the vehicle 2 h after the 2-QBA IV dosing (1 mg/kg) were returned to a metabolic cage to collect the urine and feces samples. The urine and feces samples were collected for 72 h.
Next, 2-QBA was administered PO (2 mg/kg/5 mL) with or without AC (0.8 g/kg in 3 mL of DW), which was administered via oral gavage 2 h after the 2-QBA dosing. Each group included eight mice who were randomly divided into two groups for sparse sampling. Blood collection was performed at 0.25, 0.75, 2, and 8 h from 4 mice and at 0.5, 1, 4, and 24 h from another 4 mice, as described previously. Four mice treated with either AC (0.8 g/kg) or vehicle 2 h after the 2-QBA PO dosing (2 mg/kg) were returned to a metabolic cage to collect the urine and feces samples. The urine and feces samples were collected for 72 h.
Aliquots of plasma samples (30 μL) were added to 120 μL of IS solution. The mixture was vigorously vortexed for 5 min and then centrifuged at 13,000× g for 5 min. The supernatant was transferred to autosampler vials. Subsequently, a 3 μL aliquot was injected into the LC-MS/MS system. Aliquots (30 μL) of urine and 10% feces homogenate samples were added to 60 μL of 150 mM sodium acetate buffer (pH 5.0) in the presence or absence of β-glucuronidase (900 unit) at 37 °C for 2 h. […]
Then, we quantified the 2-QBA and 2-QBA-Glu from the urine and fecal samples obtained from the mice after IV or PO administration of 2-QBA. In addition, the amount of 2-QBA-Glu was calculated by subtracting the control 2-QBA from the total 2-QBA with β-glucuronidase treatment. […]

[2] = Intestinal permeability in Ussing chamber; type: in vitro ADME, mice; conditions: upper and lower ileum
Experimental: The small intestines were isolated from fasted mice under isoflurane anesthesia (1–3% with oxygen gas flow) and dissected into three parts, the jejunum, upper ileum, and lower ileum. […] The intestinal permeability of 2-QBA was assessed by adding 0.5 mL of HBSS containing 20 μM of 2-QBA on the donor side and 0.5 mL of fresh HBSS on the receiver side. Then, a 100 μL aliquot was withdrawn from the receiver side every 30 min for 2 h and an equal volume of pre-warmed fresh HBSS was added to replenish the lost volume. To analyze the 2-QBA, 100 μL aliquots were mixed with 4 volumes of IS solution (1 ng/mL berberine in acetonitrile). The mixture was vigorously vortexed for 5 min and then centrifuged at 13,000× g for 5 min. The supernatant was transferred to autosampler vials. Subsequently, a 3 μL aliquot was injected into the LC-MS/MS system.

[3] = Stability of 2-QBA in mouse plasma (QC samples); type: in vitro ADME; conditions: for Freeze-thaw cycle stability, Accuracy / Bench-top stability, Accuracy: mouse plasma; for Freeze-thaw cycle stability, Accuracy: 3 cycles; for Bench-top stability, Accuracy: 25 °C for 6 h; for Autosampler stability, Accuracy: prepared plasma samples, 6 °C for 24 h
Experimental: The stability of 2-QBA in mouse plasma was tested in terms of its benchtop stability, freeze–thaw stability, and autosampler stability. In all stability tests, three sets of QC samples (3, 100, and 400 ng/mL) were prepared.
The benchtop stability was tested by incubating the samples at 25 °C for 6 h. For the freeze–thaw stability, the samples were placed at −80 °C for over 12 h for freezing and thawed at 25 °C for 6 h as one cycle; the same protocol was repeated for three cycles. Finally, the autosampler stability was tested by placing the prepared QC samples in the autosampler at 6 °C for 24 h. After analyzing all of the stability test samples, the concentrations were calculated using freshly prepared calibration standards.

Water solubility = type: physicochemical; conditions: n = 4

dose excreted ([1]; ICR, mouse, faeces, 1 mg/kg, IV injection of 2-QBA, read-out: fecal recovery rate): < 5% | urinary excretion rate ([1]; with AC (0.8 g/kg)): 17.5 % of the administered PO dose | urinary excretion rate ([1]; without AC): 27.7 % of the administered PO dose | absorptive permeability class compared with marker compounds ([2]; jejunum): moderate to high | Papp A→B at 2 h, 20 μM ([2]; mouse, 20 μM donor, HBSS pH 7.4, range over jejunum, read-out: absorptive permeability): 4.46 to 10 ×10⁻⁶ cm/s | Freeze-thaw cycle stability, Accuracy ([3]; nominal 100 ng/mL): 104.3% | Freeze-thaw cycle stability, Accuracy ([3]; nominal 400 ng/mL): 106.4% | Bench-top stability, Accuracy ([3]; nominal 3 ng/mL): 98.51% | Bench-top stability, Accuracy ([3]; nominal 100 ng/mL): 89.14% | Bench-top stability, Accuracy ([3]; nominal 400 ng/mL): 91.55% | Autosampler stability, Accuracy ([3]; nominal 3 ng/mL): 109.5% | Autosampler stability, Accuracy ([3]; nominal 100 ng/mL): 103.1% | Autosampler stability, Accuracy ([3]; nominal 400 ng/mL): 108.7% | solubility (Water solubility): 35.6 ± 2.71 µg/mL (≈ 122 µM)
Structure (SMILES): O=C(O)c1ccccc1NC(=O)c1cccc2cccnc12 [2-QBA, 2-(quinoline-8-carboxamido)benzoic acid]

Source: PMC11279551, “Pharmacokinetics and Enterohepatic Circulation of 2-(Quinoline-8-carboxamido)benzoic Acid (2-QBA) in Mice” (Pharmaceutics, 2024)
